According to patent US11459315B2, “Modulators of methyl modifying enzymes, compositions and uses thereof” (Constellation Pharmaceuticals, Inc., priority 2017, dated 2022):
Read-outs that look alike come from different tables or passages of the source.

Tests used:
[1] = tested on: H3K27me3 mark in HeLa cells (EZH2); test: H3K27me3 Alpha Hela Assay (AlphaLISA); type: cell-based
Procedure, shortened: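 HeLa cells (1,000/well) treated with ten 3-fold compound doses for 72 h at 37 °C; lysates extracted and H3K27me3 detected by AlphaLISA with anti-K27me3 acceptor beads, biotinylated anti-H3 (3 nM) and streptavidin donor beads. EC50 from DMSO-normalized dose-response curves; duplicate plate assessed viability.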

[2] = biological target: T1, PRC2 containing wt EZH2 (Homo sapiens (Human), UniProt Q15910); test: EZH2 residence time assay (100-fold dilution of pre-formed enzyme-inhibitor complex); type: biochemical
T1 sequence (Q15910 whole entry): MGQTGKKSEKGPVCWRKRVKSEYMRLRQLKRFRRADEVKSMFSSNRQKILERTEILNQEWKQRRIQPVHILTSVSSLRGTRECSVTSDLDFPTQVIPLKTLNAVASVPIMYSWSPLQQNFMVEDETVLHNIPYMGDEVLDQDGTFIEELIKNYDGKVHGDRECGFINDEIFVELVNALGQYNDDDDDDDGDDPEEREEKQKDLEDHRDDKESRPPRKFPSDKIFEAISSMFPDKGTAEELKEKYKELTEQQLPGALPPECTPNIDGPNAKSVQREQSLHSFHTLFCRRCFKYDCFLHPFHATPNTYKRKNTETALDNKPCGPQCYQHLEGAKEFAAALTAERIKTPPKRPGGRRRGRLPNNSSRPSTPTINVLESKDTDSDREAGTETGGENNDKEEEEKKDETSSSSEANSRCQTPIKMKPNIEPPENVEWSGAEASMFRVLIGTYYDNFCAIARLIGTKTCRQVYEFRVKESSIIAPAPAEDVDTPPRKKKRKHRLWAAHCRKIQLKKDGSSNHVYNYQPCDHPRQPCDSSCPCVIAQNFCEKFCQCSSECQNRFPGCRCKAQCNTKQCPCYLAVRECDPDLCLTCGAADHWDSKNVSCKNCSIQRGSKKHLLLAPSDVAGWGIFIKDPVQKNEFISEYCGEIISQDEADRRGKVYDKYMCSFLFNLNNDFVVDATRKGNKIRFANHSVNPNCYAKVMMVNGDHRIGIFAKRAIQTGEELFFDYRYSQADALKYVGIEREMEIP
T1 sequence (O75530 whole entry partner): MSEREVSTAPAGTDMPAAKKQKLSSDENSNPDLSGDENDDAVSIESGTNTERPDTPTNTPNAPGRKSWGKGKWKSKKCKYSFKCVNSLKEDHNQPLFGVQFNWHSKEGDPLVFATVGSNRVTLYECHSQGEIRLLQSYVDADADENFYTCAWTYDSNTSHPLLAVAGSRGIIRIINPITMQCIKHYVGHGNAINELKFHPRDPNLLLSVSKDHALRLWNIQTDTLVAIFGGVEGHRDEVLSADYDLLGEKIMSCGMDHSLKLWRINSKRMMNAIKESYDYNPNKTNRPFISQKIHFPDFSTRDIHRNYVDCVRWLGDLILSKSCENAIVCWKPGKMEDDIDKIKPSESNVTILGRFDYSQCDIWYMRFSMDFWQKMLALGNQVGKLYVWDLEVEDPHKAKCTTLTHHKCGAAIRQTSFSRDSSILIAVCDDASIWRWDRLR
T1 sequence (Q15022 whole entry partner): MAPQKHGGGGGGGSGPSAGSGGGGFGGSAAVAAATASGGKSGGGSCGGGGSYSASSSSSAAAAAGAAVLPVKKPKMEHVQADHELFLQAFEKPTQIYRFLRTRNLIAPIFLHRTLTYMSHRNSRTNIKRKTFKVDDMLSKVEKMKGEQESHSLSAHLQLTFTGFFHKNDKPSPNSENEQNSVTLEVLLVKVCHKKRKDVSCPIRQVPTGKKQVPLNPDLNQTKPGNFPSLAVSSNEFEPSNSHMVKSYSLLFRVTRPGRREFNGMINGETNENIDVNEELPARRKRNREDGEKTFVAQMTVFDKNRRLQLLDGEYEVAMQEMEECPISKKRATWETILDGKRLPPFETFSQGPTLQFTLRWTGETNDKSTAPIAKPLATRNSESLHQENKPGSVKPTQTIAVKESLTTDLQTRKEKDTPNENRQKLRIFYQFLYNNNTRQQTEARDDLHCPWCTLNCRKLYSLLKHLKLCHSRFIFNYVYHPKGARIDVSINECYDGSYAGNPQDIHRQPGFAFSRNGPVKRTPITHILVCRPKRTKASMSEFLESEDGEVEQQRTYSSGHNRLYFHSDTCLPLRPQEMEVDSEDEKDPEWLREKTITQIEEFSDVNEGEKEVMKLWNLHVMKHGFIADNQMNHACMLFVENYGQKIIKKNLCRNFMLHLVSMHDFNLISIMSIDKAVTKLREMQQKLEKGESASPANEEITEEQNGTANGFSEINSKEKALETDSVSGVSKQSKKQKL
T1 sequence (Q09028 whole entry partner): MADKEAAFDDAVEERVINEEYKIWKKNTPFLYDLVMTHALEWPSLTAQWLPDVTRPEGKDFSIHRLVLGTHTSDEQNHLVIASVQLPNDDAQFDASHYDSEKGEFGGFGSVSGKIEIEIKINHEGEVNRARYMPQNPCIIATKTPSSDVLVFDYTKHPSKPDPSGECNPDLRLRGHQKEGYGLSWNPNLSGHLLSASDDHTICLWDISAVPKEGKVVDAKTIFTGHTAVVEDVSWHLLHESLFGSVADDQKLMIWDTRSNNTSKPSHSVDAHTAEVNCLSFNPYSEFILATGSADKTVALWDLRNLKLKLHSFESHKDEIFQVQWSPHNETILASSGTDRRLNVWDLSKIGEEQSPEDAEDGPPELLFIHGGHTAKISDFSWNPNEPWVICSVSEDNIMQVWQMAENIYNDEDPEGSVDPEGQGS
T1 sequence (Q6ZN18 whole entry partner): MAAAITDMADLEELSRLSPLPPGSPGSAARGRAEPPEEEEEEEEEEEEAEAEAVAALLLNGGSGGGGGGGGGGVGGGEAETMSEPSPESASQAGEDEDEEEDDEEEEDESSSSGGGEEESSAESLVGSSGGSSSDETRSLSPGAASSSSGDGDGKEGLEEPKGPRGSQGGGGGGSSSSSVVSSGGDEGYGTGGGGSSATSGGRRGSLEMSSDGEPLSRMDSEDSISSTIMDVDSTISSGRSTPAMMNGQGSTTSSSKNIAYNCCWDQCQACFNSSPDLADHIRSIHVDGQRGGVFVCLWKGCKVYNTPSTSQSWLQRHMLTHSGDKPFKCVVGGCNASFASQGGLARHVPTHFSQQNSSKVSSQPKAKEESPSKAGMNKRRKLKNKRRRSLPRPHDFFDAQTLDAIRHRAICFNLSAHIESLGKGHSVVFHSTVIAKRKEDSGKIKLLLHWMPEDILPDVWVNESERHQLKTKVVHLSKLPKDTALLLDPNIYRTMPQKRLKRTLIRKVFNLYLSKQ
Description: EZH2 residence time assay: Compound residence times were assessed by monitoring the recovery of enzyme activity following a 100-fold dilution of pre-formed enzyme-inhibitor complex (dilution reaction), and comparing it to the activity of an undiluted control with the same final concentrations of all reagents (control reaction). Enzyme activity was measured by incorporation of ^3H-SAM into a biotinylated H3 peptide. […] For the control reaction, 0.202 nM PRC2 was pre-incubated with 1 μM activating peptide, 1.01 μM SAM, 1.01 μM ^3H-SAM, and compound at 6.06 times its Ki for 2 h in 138.6 μL of buffer, then the reaction was initiated by the addition of 1.4 μL 500 μM substrate peptide in water. Reactions were quenched at various time points spanning up to 10 hours, by transferring 8 μL aliquots from the reaction vessel to a plate containing 8 μL per well of STOP solution (50 mM Tris pH 8.5, 200 mM EDTA, 2 mM SAH). After the last time point, 12 μL of the quenched solutions were transferred to a streptavidin coated FlashPlate (PerkinElmer) containing 40 μL per well of STOP solution, incubated 1-8 h, washed, and read in a TopCount plate reader (PerkinElmer). A custom script was used to fit control reaction progress data to a straight line and dilution reaction progress data:
Where y is the product formed, t is the reaction time, vi is the initial velocity, vs is the steady state velocity, and kobs is the rate constant for the transition from the initial velocity phase of the curve to the steady state velocity phase of the curve. In fitting the dilution reaction progress data, vs was constrained to the slope of the line fitted to the control reaction progress data. The fitted value of kobs was then transformed into residence time:
Where τ is residence time, Ki is the inhibition constant, [EI] is the calculated equilibrium concentration of enzyme-inhibitor complex, [E] is the calculated equilibrium concentration of free enzyme, and [I] is the calculated equilibrium concentration of free inhibitor.

[3] = biological target: T1, PRC2 containing wt EZH2; test: EZH2 biochemical assay (IC50), 3H-SAM incorporation into biotinylated H3 peptide; conditions: 30 pM PRC2 containing wt EZH2, 3-5 h pre-incubation
Procedure, shortened: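 Activity was measured as ³H-methyl transfer to a biotinylated H3K27me1 peptide over 18-22 h at room temperature, with capture on streptavidin flash plates. The 30 pM wt-EZH2 PRC2 complex was first pre-incubated 3-5 h with compound, 450 nM SAM/450 nM ³H-SAM and 2 µM H3K27me3 activator (pH 8.5, 0.8% DMSO). Four-parameter fits gave IC50.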

[4] = Homo sapiens, HeLa, HeLa cell assay, Table 3 classes, read-out: EC50 Cellular Activity
[5] = HeLa cell assay, Table 3 classes, read-out: EC50 Cellular Activity
[6] = HeLa cells, 72 hrs, read-out: EZH2 Cell H3K27me3 Alpha HeLa (EC50 K27me3)
[7] = Homo sapiens, HeLa, 72 h, HeLa cells, 72 hrs, read-out: EZH2 Cell H3K27me3 Alpha HeLa (EC50 K27me3)

COC1CN(C2CCC([C@@H](C)n3c(C)c(C(=O)NCc4c(Cl)cc(C)[nH]c4=O)c4ccccc43)CC2)C1 (single isomer, unassigned)
EC50 [1, 4]: 0.005 to 0.025 µM | residence time [2]: 30 to 300 min

CSc1cc(C)[nH]c(=O)c1CNC(=O)c1c(C)n([C@H](C)C23CC(NC4COC4)(C2)C3)c2ccccc12 [drawing 234]
EC50 [1, 4]: < 0.005 µM | residence time [2]: 300 to 2100 min

CCSc1cc(C)[nH]c(=O)c1CNC(=O)c1c(C)n([C@H](C)C2CCN(CC(F)(F)F)CC2)c2ccccc12 [drawing 265]
EC50 [1, 4]: 0.025 to 0.125 µM | residence time [2]: < 30 min

COc1cc(C)[nH]c(=O)c1CNC(=O)c1c(C)n([C@H](C)C2CCC(NC3COC3)CC2)c2ccccc12 (single isomer, unassigned) [drawing 207]
EC50 [1, 5]: > 0.125 µM | residence time ([2]; read-out: Residence Time): < 30 min

Cc1cc(C)c(CNC(=O)c2c(C)n([C@H](C)C3CCC(NC4COC4)CC3)c3ccccc23)c(=O)[nH]1 (single isomer, unassigned) [drawing 209]
EC50 [1, 5]: > 0.125 µM | residence time ([2]; read-out: Residence Time): < 30 min

CSc1cc(C)[nH]c(=O)c1CNC(=O)c1c(C)n([C@H](C)C2CCC(N3CC(OC4CC4)C3)CC2)c2ncccc12 (stereo partly drawn)
EC50 [1, 4]: < 0.005 µM | residence time ([2]; read-out: Residence Time): 300 to 2100 min

Cc1cc(Cl)c(CNC(=O)c2c(C)n([C@H](C)C3OCC(NC4(C)COC4)CO3)c3ccccc23)c(=O)[nH]1 (single isomer, unassigned) [drawing 225]
EC50 [1, 5]: > 0.125 µM | residence time [2]: D (a t value of less or equal than 0.5 hours)

CSc1cc(C)[nH]c(=O)c1CNC(=O)c1c(C)n([C@H](C)C2CCC(NC3(C)COC3)CC2)c2ccccc12 (single isomer, unassigned) [drawing 205]
EC50 [1, 4]: < 0.005 µM | residence time [2]: A (value of greater than 35 hours)

CSc1cc(C)[nH]c(=O)c1CNC(=O)c1c(C)n([C@H](C)C23CC(N(C)CC(F)(F)F)(C2)C3)c2ccccc12 [drawing 237]
EC50 [1, 4]: 0.005 to 0.025 µM | residence time [2]: 300 to 2100 min

COC1CN(C2CCC([C@@H](C)n3c(C)c(C(=O)NCc4c(SC5CC5)cc(C)[nH]c4=O)c4ccccc43)CC2)C1 (stereo partly drawn) [drawing 264]
EC50 [1, 4]: 0.005 to 0.025 µM | residence time [2]: 300 to 2100 min

COc1cc(C)[nH]c(=O)c1CNC(=O)c1c(C)n([C@H](C)C2CCN(CC(F)(F)F)CC2)c2ccccc12
EC50 [1, 4]: 0.005 to 0.025 µM | residence time ([2]; read-out: Residence Time): 30 to 300 min

Cc1cc(SC(F)F)c(CNC(=O)c2c(C)n([C@H](C)C3CCN(CC(F)(F)F)CC3)c3ccccc23)c(=O)[nH]1 [drawing 266]
EC50 [1, 4]: 0.025 to 0.125 µM | residence time [2]: < 30 min

CSc1cc(C)[nH]c(=O)c1CNC(=O)c1c(C)n([C@H](C)C2OCC(NC(C)(C)C)CO2)c2ccccc12 (single isomer, unassigned) [drawing 224]
EC50 [1, 5]: < 0.005 µM | residence time [2]: A (value of greater than 35 hours)

CSc1cc(C)[nH]c(=O)c1CNC(=O)c1c(C)n([C@H](C)C2CCC(O)CC2)c2ccccc12 (single isomer, unassigned) [drawing 251]
EC50 [1, 5]: < 0.005 µM | residence time [2]: A (value of greater than 35 hours)

COc1cc(C)[nH]c(=O)c1CNC(=O)c1c(C)n([C@H](C)C2CCN(CC(C)(C)O)CC2)c2ccccc12
EC50 [1, 4]: > 0.125 µM | residence time [2]: < 30 min

Cc1cc(Cl)c(CNC(=O)c2c(C)n([C@H](C)C3CCC(NC4COC4)CC3)c3ccccc23)c(=O)[nH]1 (single isomer, unassigned) [drawing 211]
EC50 [1, 5]: > 0.125 µM | residence time ([2]; read-out: Residence Time): < 30 min

COC1CN(C2CCC([C@@H](C)n3c(C)c(C(=O)NCc4c(SC)cc(C)[nH]c4=O)c4cccnc43)CC2)C1 (single isomer, unassigned) [drawing 259]
EC50 [1, 5]: 0.005 to 0.025 µM | residence time [2]: 300 to 2100 min

CSc1cc(C)[nH]c(=O)c1CNC(=O)c1c(C)n([C@H](C)C2CCC(NC3(C(F)(F)F)COC3)CC2)c2ccccc12 (stereo partly drawn)
EC50 [1, 4]: < 0.005 µM | residence time [2]: 300 to 2100 min

CSc1cc(C)[nH]c(=O)c1CNC(=O)c1c(C)n([C@H](C)C2OCC(NC3(C)COC3)CO2)c2ccccc12 (single isomer, unassigned) [drawing 227]
EC50 [1, 5]: < 0.005 µM | residence time [2]: A (value of greater than 35 hours)

Cc1cc(Cl)c(CNC(=O)c2c(C)n([C@H](C)C3OCC(NC(C)(C)C)CO3)c3ccccc23)c(=O)[nH]1 (single isomer, unassigned) [drawing 221]
EC50 [1, 4]: 0.005 to 0.025 µM | residence time ([2]; read-out: Residence Time): 30 to 300 min

COC1CN(C2CCC([C@@H](C)n3c(C)c(C(=O)NCc4c(C)cc(C)[nH]c4=O)c4ccccc43)CC2)C1 (single isomer, unassigned)
EC50 [1, 4]: 0.005 to 0.025 µM | residence time [2]: 30 to 300 min

COc1cc(C)[nH]c(=O)c1CNC(=O)c1c(C)n([C@H](C)C2CCC(N3CC(OC)C3)CC2)c2ccccc12 (single isomer, unassigned) [drawing 217]
EC50 [1, 4]: > 0.125 µM | residence time [2]: < 30 min

CSc1cc(C)[nH]c(=O)c1CNC(=O)c1c(C)n([C@H](C)C2OCC(N(C)C)CO2)c2ccccc12 (single isomer, unassigned) [drawing 232]
EC50 [1, 5]: < 0.005 µM | residence time [2]: B (a t value of greater than 5 hours but less or equal than 35 hours)

Cc1cc(C)c(CNC(=O)c2c(C)n([C@H](C)C3CCC(NC4(C)COC4)CC3)c3ccccc23)c(=O)[nH]1 (single isomer, unassigned) [drawing 203]
EC50 [1, 5]: 0.025 to 0.125 µM | residence time [2]: D (a t value of less or equal than 0.5 hours)

Cc1cc(C)c(CNC(=O)c2c(C)n([C@H](C)C3CCN(CC(C)(C)O)CC3)c3ccccc23)c(=O)[nH]1
EC50 [1, 4]: > 0.125 µM | residence time [2]: < 30 min

Cc1cc(C)c(CNC(=O)c2c(C)n([C@H](C)C3CCC(NC4(C)COC4)CC3)c3ccccc23)c(=O)[nH]1 (single isomer, unassigned) [drawing 204]
EC50 [1, 5]: < 0.005 µM | residence time [2]: B (a t value of greater than 5 hours but less or equal than 35 hours)

CSc1cc(C)[nH]c(=O)c1CNC(=O)c1c(C)n([C@H](C)[C@H]2OC[C@@H](N3CCC34COC4)CO2)c2ccccc12 (single isomer, unassigned; isomer 1) [150 (isomer 1)]
EC50 [1, 6]: > 0.1 µM | IC50 ([3]; read-out: EZH2 (IC50)): 0.0005 to 0.005 µM

CSc1cc(C)[nH]c(=O)c1CNC(=O)c1c(C)n([C@H](C)CO)c2ccccc12 [Example 31, (R)-1-(1-hydroxypropan-2-yl)-2-methyl-N-((6-methyl-4-(methylthio)-2-oxo-1,2-dihydropyridin-3-yl)methyl)-1H-indole-3-carboxamide]
EC50 [1, 7]: > 0.1 µM | IC50 ([3]; read-out: EZH2 (IC50)): > 0.005 µM

CSc1cc(C)[nH]c(=O)c1CNC(=O)c1c(C)n([C@H](C)[C@H]2CCN(C)C[C@@H]2F)c2ccccc12 [Example 42, 1-((R)-1-((3R,4R)-3-fluoro-1-methylpiperidin-4-yl)ethyl)-2-methyl-N-((6-methyl-4-(methylthio)-2-oxo-1,2-dihydropyridin-3-yl)methyl)-1H-indole-3-carboxamide]
EC50 [1, 7]: < 0.01 µM | IC50 ([3]; EZH2 (IC50)): < 0.0005 µM

CSc1cc(C)[nH]c(=O)c1CNC(=O)c1c(C)n([C@H](C)C2CCC(NC3(CO)COC3)CC2)c2cc(F)ccc12 (single isomer, unassigned) [159 (isomer 1)]
EC50 [1, 7]: 0.01 to 0.1 µM | IC50 ([3]; read-out: EZH2 (IC50)): < 0.0005 µM

CSc1cc(C)[nH]c(=O)c1CNC(=O)c1c(C)n([C@H](C)C2CCC(N3CC(F)C3)CC2)c2ncc(F)cc12 (single isomer, unassigned) [84 (isomer 1)]
EC50 [1, 7]: < 0.01 µM | IC50 ([3]; EZH2 (IC50)): < 0.0005 µM

CCOC1CN(C2CCC([C@@H](C)n3c(C)c(C(=O)NCc4c(SC)cc(C)[nH]c4=O)c4cccnc43)CC2)C1 (single isomer, unassigned) [91 (isomer 2)]
EC50 [1, 6]: 0.01 to 0.1 µM | IC50 ([3]; read-out: EZH2 (IC50)): < 0.0005 µM

CSc1cc(C)[nH]c(=O)c1CNC(=O)c1c(C)n([C@H](C)C2CCN(C3CC3)CC2)c2ncncc12 [Example 50, (R)-7-(1-(1-cyclopropylpiperidin-4-yl)ethyl)-6-methyl-N-((6-methyl-4-(methylthio)-2-oxo-1,2-dihydropyridin-3-yl)methyl)-7H-pyrrolo[2,3-d]pyrimidine-5-carboxamide]
EC50 [1, 7]: < 0.01 µM | IC50 ([3]; EZH2 (IC50)): < 0.0005 µM
